Key:
[1] = Example 7: safety of single 400 mg dose; format: in vivo, human; settings: single oral 400 mg dose, fasted and fed, healthy Japanese males
Experimental: The subjects were admitted to the medical institution in the afternoon on the day before administration (“Day-1”). […] The subjects were discharged the day after administration (“Day 2”). Thus, the subjects were hospitalized for a total of three days. Follow up assessment for safety was performed 6 to 8 days after administration (“Days 7 to 9”).

[2] = Example 2: safety in subjects infected with HIV-1; format: in vivo, human
Experimental: Safety: Adverse events, vital signs, electrocardiogram, ophthalmologic examination, and clinical laboratory tests were evaluated for safety. Safety: The proportion of subjects with adverse events was summarized by treatment, system organ class and preferred term for treatment-emergent adverse events, treatment-related adverse events, serious adverse events, and adverse events leading to study drug discontinuation. Adverse events were coded using the Medical Dictionary for Regulatory Activities (MedDRA®) version 8.1. […] Laboratory results were expressed on the original measurement scale and in terms of the toxicity grade. Changes from baseline in quantitative laboratory tests were summarized by visit.

[3] = Example 1: multiple-dose safety of Compound 1 alone and with RTV; format: in vivo, human
Experimental: The single-dose and multiple-dose pharmacokinetics of Compound 1 were also determined. The multiple-dose safety of Compound 1 administered alone and with RTV was also determined. Safety: Safety was evaluated by assessment of clinical laboratory tests at baseline and at various time points during the study; periodic physical examinations, including vital signs; and documentation of adverse events throughout the study. Safety: No statistical inference was performed for safety data in this pharmacokinetic study.

[4] = Example 3: pharmacokinetics of Compound 1 and RTV at a range of RTV doses; settings: for Ctau / AUC / Cmax / half-life: Compound 1 in plasma, mean (CV %); for IQ: based on protein binding-adjusted IC50 in PBMCs; for AUC / Cmax / half-life: both, human, plasma, oral; for AUC: AUCtau
[5] = Example 5: drug-drug interaction of zidovudine and Compound 1/r; settings: human, in vivo
Source text: Zidovudine is a NRTI used in HIV patients.
PK parameters were estimated using WinNonlin™ 5.0.1 (Pharsight Corporation, Mountain View, Calif., USA).

[6] = human, in vivo
Experimental: Safety, tolerability, pharmacokinetics, and efficacy were monitored through Day 21 after dosing. The active treatments in the 5 cohorts were as follows: […] The duration of the study was 21 days, with 10 days of treatment and 11 days of follow-up. […] Matching placebo was administered orally under fed conditions. For Cohort 5 only, 100 mg RTV capsules were coadministered orally under fed conditions. […] Pharmacokinetics: The pharmacokinetic parameters of Compound 1 in plasma and peripheral blood mononuclear cells were summarized using descriptive statistics.

[7] = Example 1: pharmacokinetics of Compound 1 alone and with RTV in healthy subjects; format: in vivo, human; settings: for Ctau / Cmax / half-life / AUC: Compound 1 in plasma; for AUC: N = 12, read-out: AUC (AUCtau)
Source text: The study was an open-label, fixed-sequence, crossover, pharmacokinetic study with 12 subjects. The subjects were healthy males and non-pregnant, nonlactating females between 18 and 45 years of age, inclusive. The duration of the study was 20 days, with Period 1 of Days 1 to 10 and Period 2 of days 11 to 20. Follow-up contact was on day 27.

[8] = Example 7: food effect on pharmacokinetics of Compound 1 in healthy Japanese males; format: in vivo; settings: male, human, plasma, po, 400 mg, single oral dose 400 mg, Mean ± SD (n = 6); for half-life: read-out: t1/2 λz (converted)
Experimental: Subjects in the 400 mg fasted cohort received an additional 400 mg dose with breakfast after a washout period (generally a minimum of ten days after the initial administration). The interval of ten days between the two doses was considered appropriate for eliminating any within-subject carryover effects. […] Doses were administered at similar times for each subject in each treatment period. […] Plasma samples were isolated from healthy subjects administered with Compound 1. The plasma samples were extracted by solid phase extraction using Empore™ Disk Plate (C8SD), and then measured by high-performance liquid chromatography/tandem mass spectrometry (LC/MS/MS) (HPLC model 2795 separations module from Waters; mass spectrometer model AP14000 from MDS SCIEX). Ionization and detection were performed with electrospray ionization and positive ion detection with multiple reaction monitoring, respectively. […] To 50 μL of plasma samples spiked with […] each of 90% acetonitrile and 20 mmol/L ammonium formate-formic acid buffer (pH 3.0)/acetonitrile (10:90, v/v), 10 μL each of internal standard solution was added. To these samples, 200 μL of 0.1% formic acid in 10% acetonitrile was added. These solutions were then mixed for 10 seconds and centrifuged at 10,000 rpm for 5 minutes at 4° C. A 250 μL aliquot of the supernatant was added to a Empore™ Disk Plate (C8SD) (conditioned with 150 μL of acetonitrile and 200 μL of 0.1% formic acid in this order). The plate was washed twice with 200 μL of 0.1% formic acid in 20% acetonitrile and eluted twice with 100 μL of 0.1% formic acid in 80% acetonitrile (200 μL in total). To the eluates, 200 μL of 0.1% formic acid was added and mixed. Then, 10 μL of each solution was injected into the LC/MS/MS system and analyzed.

[9] = 200 mg of Compound 1 twice-daily, 6 subjects
[10] = healthy subjects, Compound 1 100 mg twice daily alone, or with RTV 100 mg twice daily
[11] = Compound 1 125 mg + 20 mg RTV QD
[12] = Compound 1 125 mg + 50 mg RTV QD
[13] = Compound 1 125 mg + 100 mg RTV QD
[14] = Compound 1 125 mg + 200 mg RTV QD
[15] = both sexes, human, plasma, oral, 100 mg, Day 10, Compound 1 100 mg twice daily alone, mean (% CV)
[16] = both sexes, human, plasma, oral, Day 11, Compound 1 100 mg twice daily + single dose RTV 100 mg, mean
[17] = both sexes, human, plasma, oral, Day 20, Compound 1 100 mg + RTV 100 mg twice daily, mean

In the case of COc1cc2c(cc1Cc1cccc(Cl)c1F)c(=O)c(C(=O)O)cn2[C@H](CO)C(C)C [Compound 1, 6-(3-chloro-2-fluorobenzyl)-1-[(2S)-1-hydroxy-3-methylbutan-2-yl]-7-methoxy-4-oxo-1,4-dihydroquinoline-3-carboxylic acid], the Safety and tolerability [1] is reported as “safe and well tolerated”, the “Subjects with treatment-emergent Grade 3 or 4 laboratory abnormalities” value ([2]; 50 mg of Compound 1+RTV once-daily, 6 subjects) is reported as 1 subject and the “Subjects with treatment-related fatigue” value [2, 9] is reported as 2 subjects. The “Subjects with treatment-related nausea” value [2, 9] was 2 subjects, the “Subjects with treatment-emergent Grade 3 or 4 laboratory abnormalities” value ([2]; 400 mg of Compound 1 twice-daily, 6 subjects) was 1 subject and the Tolerability ([2]; all dose levels, 10 days, HIV-1 infected subjects) was “generally well tolerated”. The “Subjects with treatment-emergent AEs considered related to study drugs” value [3, 10] was 2 of 12, the “Subjects with treatment-emergent adverse events” value [3, 10] was 4 of 12 and the Tolerability ([3]; oral, 100 mg twice daily, Compound 1 up to 20 days, with RTV 100 mg twice daily up to 10 days) was “well tolerated”. For the same molecule, the Ctau [4, 11] was 73.8 (60.2) ng/ml, the Ctau [4, 12] was 251 (27.7) ng/ml and the Ctau [4, 13] was 380 (39.9) ng/ml. The Ctau [4, 14] was 410 (26.0) ng/ml, the IQ [4, 11] was 10.3 and the IQ [4, 12] was 35.0. For the same molecule, the IQ [4, 13] was 53.0, the IQ [4, 14] was 57.2 and the AUC ([4]; Compound 1 125 mg + 20 mg RTV QD, after a meal) was 10200 ng·h/mL. The AUC [4, 12] was 15800 ng·h/mL, the AUC [4, 13] was 20300 ng·h/mL and the AUC [4, 14] was 20600 ng·h/mL. It also gave a Cmax [4, 11] of 1370 ng/mL, a Cmax [4, 12] of 1560 ng/mL and a Cmax [4, 13] of 1830 ng/mL. It also gave a Cmax [4, 14] of 2030 ng/mL, a half-life [4, 11] of 4.34 h and a half-life [4, 12] of 9.52 h. The half-life [4, 13] was 11.5 h, the half-life [4, 14] was 14.3 h and the “Half-life (48 hour PK profile)” value [5] was “supporting once daily dosing”. The “Dose proportionality of pharmacokinetics” value [6] was “did not exhibit dose-proportional increases”, the “mean steady-state exposure (AUCtau, Day 10) lower compared with mean exposure (AUCinf) after a single dose (Day 1)” value ([7]; Compound 1 100 mg alone, indicating autoinduction of metabolism) was “approximately 20%” and the Ctau ([7]; end of dosing interval, Day 1, Compound 1 100 mg alone, mean (% CV)) was 19.2 (52.5) ng/mL. For the same molecule, the Ctau ([7]; Day 10, Compound 1 100 mg twice daily alone, mean (% CV)) was 12.4 (63.7) ng/mL, the Ctau ([7]; Day 11, Compound 1 100 mg twice daily + single dose RTV 100 mg, mean) was 543.3 ng/mL and the Ctau ([7]; Day 20, Compound 1 100 mg + RTV 100 mg twice daily, mean) was 1035.6 ng/mL. It also gave a Cmax ([7]; both sexes, human, plasma, oral, 100 mg, Day 1, single dose Compound 1 100 mg alone, mean (% CV)) of 200 ng/mL, a half-life ([7]; both sexes, human, plasma, oral, 100 mg, Day 1, single dose Compound 1 100 mg alone, median (min, max)) of 3.1 h and a half-life ([7]; both sexes, human, plasma, oral, 100 mg, Day 10, Compound 1 100 mg twice daily alone, steady state, median (min, max)) of 3.5 h. For the same molecule, the Cmax [7, 15] was 164 ng/mL, the AUC [7, 15] was 719 ng·h/mL and the AUC(0-inf) ([7]; both sexes, human, plasma, oral, 100 mg, read-out: AUC (AUCinf)) was 908 ng·h/mL. The Cmax [7, 16] was 795 ng/mL, the AUC [7, 16] was 6170 ng·h/mL and the half-life ([7]; both sexes, human, plasma, oral, Day 11, Compound 1 100 mg twice daily + single dose RTV 100 mg, median) was 18.2 h. It also gave a half-life ([7]; both sexes, human, plasma, oral, Day 20, Compound 1 100 mg + RTV 100 mg twice daily, steady state, median) of 9.5 h, a Cmax [7, 17] of 1830 ng/mL and an AUC [7, 17] of 14300 ng·h/mL. It also gave an AUC(0-inf) ([8]; Fasted) of 1450 ± 308 ng·h/mL, a Cmax ([8]; Fasted) of 264 ± 78 ng/mL and a Tmax ([8]; Fasted) of 2.5 ± 1.2 h. It also gave a half-life ([8]; Fasted) of 5.4 ± 1 h, an AUC(0-inf) ([8]; Fed) of 3940 ± 1070 ng·h/mL and a Cmax ([8]; Fed) of 903 ± 391 ng/mL. It also gave a Tmax ([8]; Fed) of 2.3 ± 1 h and a half-life ([8]; Fed) of 3.2 ± 0.3 h.
